According to patent US7049295B2, “Compounds and use thereof to modify transport across cell membranes” (Biotransys Limited, priority 1999, dated 2006):

Assays:
HUVECs = test: Transcellular transport of horse radish peroxidase (HRP) across a cell monolayer on filter; assay type: cell-based, human
Protocol: Transport of horse radish peroxidase (HRP) across a cellular membrane was measured using the apparatus shown schematically in FIG. 4, with the addition of biovectors (BVS1 etc). The apparatus comprises upper and lower compartments (1, 2 respectively) separated by a filter 3 on which the cells 4 are grown. HRP and biovectors are added to the medium in the upper compartment 1, and HRP is assayed in the lower compartment 2.
Transcellular transport was determined as above for the HUVECs studies. […]

[1] = test system: receptor located in human umbilical vein endothelial cells (HUVECS); test: Interaction of designer peptides with FPE-labelled human cells possessing membrane receptor (fluorescence); assay type: binding
From the text: (§1) The following Examples illustrate the behaviour of various peptides and other molecules that promote transcellular transport of therapeutic molecules etc. These studies make use of techniques that show the interactions of molecules with receptors and cell membranes. […] The underlying theory and application of this technique is outlined in: • Wall, J., Ayoub, F. & O'Shea. P. (1995) J. Cell Sci. 108, 2673–2682 • Cladera, J. and O'Shea, P. (1998) Biophys. J. 74, 2434–2442 • Cladera, J., Martin, I., Ruysschaert, J. M. and O'Shea, P. (1999) J. Biol. Chem. 274, 29951–29959 the teaching of all of which is incorporated herein by reference.
Human umbilical endothelial cells were labelled with FPE and challenged with the indicated amounts of BVS1 peptides. […] Fluorescence was recorded at 518 nm after excitation at 490 nm.
Two separate experiments are shown and offset in the time dimension for clarity. Peptides were added as indicated by the arrows. The BVS1 peptide was added in both experiments. In the second trace, however, addition of BVS1 was preceded by the addition of 300 nM IL-8.

[2] = test system: receptor isolated from the HUVECS plasma membrane (albumin receptor protein); test: Interaction with purified isolated receptor reconstituted into FPE-labelled artificial membranes; assay type: binding, human
From the text: as §1
At the arrows, 5 μM BVS1 was added. Two separate experiments are shown and offset in the time dimension for clarity.

Caco2 cells = test: Transcellular transport of HRP across monolayers of Caco2 cells; assay type: cell-based; conditions: Caco2 monolayer, following treatment with 5 μM BVS1 (absence of BVS1: ca 0.001)
Protocol: Caco2 cells were cultured (passage 17–30) with standard methods and used at ca 21 days. Cells were plated at a density of ca. […] on Transwell® filters (2–4 μm, mean pore size).
The viability of cells for transport was assessed on the basis of the transcellular electrical resistance and values […] were assessed as viable.
Transcellular transport was determined as above for the HUVECs studies. In the absence of BVS1 transcellular transport was determined to be ca 0.001 nM min^−1.

[3] = +5 μM biovector, over baseline 0.003 nM/min^−1

## AGIGALFLGFLGAAG [BVS16]
HUVECs; [3]
  Facilitated transport: 9 X Fold

## AVGIGALFLGFLGAAG [BVS1]
[1]; HUVECS labelled with FPE
  binding to receptor (FPE fluorescence): clearly binds to a receptor
[1]; addition of BVS1 preceded by 300 nM IL-8
  binding to receptor after prior addition of IL-8: unable to bind
[2]; 5 μM BVS1
  binding to reconstituted isolated receptor (FPE fluorescence increase): clearly binds to a receptor
[2]; 5 μM BVS1 preceded by 5 μM human serum albumin
  binding to reconstituted isolated receptor after prior addition of human serum albumin: unable to bind
HUVECs; +5 μM PSNU then +5 μM BVS1
  Facilitated transport: 3/0
HUVECs; [3]
  Facilitated transport: 15 X Fold
Caco2 cells
  transcellular transport: 0.02 nM/min

## GVFVLGFLGFLATAGS [BVS9]
HUVECs; [3]
  Facilitated transport: 7 X Fold

## GVFVLGLFGFLA [BVS5]
HUVECs; [3]
  Facilitated transport: 22 X Fold

## interleukin-8 [IL-8]
[1]; 300 nM IL-8
  binding of IL-8 to the receptor targeted by BVS1: appears to bind

## polysulfonylnaphthylurea [PSNU, reference compound]
[2]; 2 μM PSNU
  interaction with reconstituted albumin receptor protein (FPE): interactions take place
HUVECs; [3]
  Facilitated transport: 3 X Fold
